From PubChem BioAssay AID330 (DTP/NCI, 2004)
“And” between values parts separate entries of the source, which are not always exact repeats. Equal entries are not always repeated. Inconclusive results and toxic doses are left out. Peptide text beside a SMILES is read from it. * marks the point of attachment. Cbz = O=C(OCc1ccccc1)*; βAla = NCCC(=O)O

System: P388 leukemia ip, CD2F1 mice, survival T/C
Experiment: NCI In Vivo Anticancer Drug Screen. Data for tumor model P388 Leukemia (intraperitoneal) in CD2F1 (CDF1) mice
Conditions: endpoint: median survival time, higher = longer survival
Method in brief: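 Mice carrying the transplanted tumor received test compound or vehicle. Survival was recorded in each group, and the value is the treated-group measurement divided by that of the vehicle-treated control group.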

[1] = dose: 12.5 mg/kg/injection, schedule: Q04DX003 (ip), vehicle: Klucel (hydroxypropylcellulose) (HPC)
[2] = dose: 50.0 mg/kg/injection, schedule: Q01DX005 (ip), vehicle: saline with Tween-80
[3] = dose: 100.0 mg/kg/injection, schedule: Q01DX005 (ip), vehicle: saline with Tween-80
[4] = dose: 200.0 mg/kg/injection, schedule: Q01DX005 (ip), vehicle: saline with Tween-80
[5] = dose: 60.0 mg/kg/injection, schedule: Q01DX005 (ip), vehicle: saline with Tween-80

**Q.** What does the source list for Clc1ccc(CSSCc2ccc(Cl)cc2)cc1?
**A.** T/C (dose: 12.5 mg/kg/injection, schedule: Q04DX003 (ip), vehicle: saline with Tween-80): 100 % of control; T/C (dose: 25.0 mg/kg/injection, schedule: Q04DX003 (ip), vehicle: saline with Tween-80): 100 % of control; T/C (dose: 50.0 mg/kg/injection, schedule: Q04DX003 (ip), vehicle: saline with Tween-80): 100 % of control; T/C (dose: 100.0 mg/kg/injection, schedule: Q04DX003 (ip), vehicle: saline with Tween-80): 107 % of control

**Q.** With C=CC(C)(C)C(O)C=C(C)C (stereo not given) as the molecule, how does the T/C (dose: 100.0 mg/kg/injection, schedule: Q04DX002 (ip), vehicle: saline with Tween-80) read?
**A.** 99 % of control

**Q.** What about the T/C (dose: 200.0 mg/kg/injection, schedule: Q04DX002 (ip), vehicle: saline with Tween-80) of the same molecule?
**A.** 100 % of control

**Q.** What about the T/C (dose: 400.0 mg/kg/injection, schedule: Q04DX002 (ip), vehicle: saline with Tween-80) of the same molecule?
**A.** 101 % of control

**Q.** Which T/C (dose: 100.0 mg/kg/injection, schedule: Q04DX002 (ip), vehicle: Klucel (hydroxypropylcellulose) (HPC)) does the source give for O=C1C(Cl)=C(Cl)C(=O)N1c1ccc(Br)cc1Br here?
**A.** 105 % of control

**Q.** And the T/C (dose: 200.0 mg/kg/injection, schedule: Q04DX002 (ip), vehicle: Klucel (hydroxypropylcellulose) (HPC))?
**A.** 105 % of control

**Q.** What about the T/C (dose: 400.0 mg/kg/injection, schedule: Q04DX002 (ip), vehicle: Klucel (hydroxypropylcellulose) (HPC)) of the same molecule?
**A.** 100 % of control

**Q.** Which results are given for [NH-]NC(=S)[S-].[NH-]NC(=S)[S-].[Pt+4]?
**A.** T/C [1]: 103 % of control; T/C (dose: 25.0 mg/kg/injection, schedule: Q04DX003 (ip), vehicle: Klucel (hydroxypropylcellulose) (HPC)): 100 % of control; T/C (dose: 50.0 mg/kg/injection, schedule: Q04DX003 (ip), vehicle: Klucel (hydroxypropylcellulose) (HPC)): 109 % of control

**Q.** For O=C1c2ccncc2C(=O)N1CCO, which T/C (dose: 60.0 mg/kg/injection, schedule: Q01DX005 (ip), vehicle: saline) is on record?
**A.** 103 % of control

**Q.** What about the T/C (dose: 120.0 mg/kg/injection, schedule: Q01DX005 (ip), vehicle: saline) of the same molecule?
**A.** 104 % of control

**Q.** What about the T/C (dose: 240.0 mg/kg/injection, schedule: Q01DX005 (ip), vehicle: saline) of the same molecule?
**A.** 101 % of control

**Q.** What does the source list for C(=N\Nc1nnc2c(n1)[nH]c1ccccc12)/c1cccnc1?
**A.** T/C (dose: 12.5 mg/kg/injection, schedule: Q01DX005 (ip), vehicle: Klucel + Tween-80): 106 % of control; T/C (dose: 25.0 mg/kg/injection, schedule: Q01DX005 (ip), vehicle: Klucel + Tween-80): 91 % of control; T/C (dose: 50.0 mg/kg/injection, schedule: Q01DX005 (ip), vehicle: Klucel + Tween-80): 87 % of control

**Q.** Which results are given for CCCCN(CCCC)C1/C(=N\O)C2CC1C1CC=CC21 (stereo not given)?
**A.** T/C (dose: 60.0 mg/kg/injection, schedule: Q01DX005 (ip), vehicle: saline + Tween-80 + alcohol): 95 % of control; T/C (dose: 120.0 mg/kg/injection, schedule: Q01DX005 (ip), vehicle: saline + Tween-80 + alcohol): 94 % of control; T/C (dose: 240.0 mg/kg/injection, schedule: Q01DX005 (ip), vehicle: saline + Tween-80 + alcohol): 94 % of control

**Q.** What does the source list for Cc1cc(C)n(-c2ccc(S(=O)(=O)N3CC(=O)N(c4ccccc4)C3=S)cc2)n1?
**A.** T/C [2]: 95 % of control; T/C [3]: 93 % of control

**Q.** Which results are given for O=[N+]([O-])c1c(Cl)cc(Cl)c(-c2c(Cl)cc(Cl)c([N+](=O)[O-])c2Cl)c1Cl?
**A.** T/C (dose: 25.0 mg/kg/injection, schedule: Q01DX009 (ip), vehicle: other): 102 % of control; T/C (dose: 50.0 mg/kg/injection, schedule: Q01DX009 (ip), vehicle: other): 106 % of control; T/C (dose: 100.0 mg/kg/injection, schedule: Q01DX009 (ip), vehicle: other): 107 % of control; T/C (dose: 200.0 mg/kg/injection, schedule: Q01DX009 (ip), vehicle: other): 106 % of control; T/C (dose: 400.0 mg/kg/injection, schedule: Q01DX009 (ip), vehicle: other): 105 % of control

**Q.** How did the T/C (dose: 1.56 mg/kg/injection, schedule: Q04DX003 (ip), vehicle: other) turn out when Nc1cc2c(c[n+](CCCCCCCC[n+]3cc4c5ccccc5c(N)cc4c4ccccc43)c3ccccc23)c2ccccc12 was run?
**A.** 161 % of control

**Q.** And the T/C (dose: 3.13 mg/kg/injection, schedule: Q04DX003 (ip), vehicle: other)?
**A.** 158 % of control and 161 % of control

**Q.** And the T/C (dose: 6.25 mg/kg/injection, schedule: Q04DX003 (ip), vehicle: other)?
**A.** 152 % of control and 205 % of control

**Q.** And the T/C (dose: 12.5 mg/kg/injection, schedule: Q04DX003 (ip), vehicle: other)?
**A.** 168 % of control

**Q.** And the T/C (dose: 25.0 mg/kg/injection, schedule: Q04DX003 (ip), vehicle: other)?
**A.** 93 % of control

**Q.** What about the T/C (dose: 50.0 mg/kg/injection, schedule: Q04DX003 (ip), vehicle: other) of the same molecule?
**A.** 86 % of control

**Q.** For CS(=O)(=O)OCc1ccc(COS(C)(=O)=O)cc1, which T/C [1] is on record?
**A.** 123 % of control

**Q.** Which T/C (dose: 25.0 mg/kg/injection, schedule: Q01DX005 (ip), vehicle: saline) does the source give for Cc1ccc(C(=O)Nc2ccc(S(=O)(=O)O)c3cc(S(=O)(=O)O)cc(S(=O)(=O)O)c23)cc1NC(=O)c1cccc(NC(=O)Nc2cccc(C(=O)Nc3cc(C(=O)Nc4ccc(S(=O)(=O)O)c5cc(S(=O)(=O)O)cc(S(=O)(=O)O)c45)ccc3C)c2)c1 here?
**A.** 106 % of control

**Q.** And the T/C (dose: 50.0 mg/kg/injection, schedule: Q01DX005 (ip), vehicle: saline)?
**A.** 95 % of control

**Q.** For O=C1CSC(c2cc(O)ccc2O)N1c1nncs1 (stereo not given), which T/C [2] is on record?
**A.** 90 % of control

**Q.** What about the T/C [3] of the same molecule?
**A.** 97 % of control

**Q.** And the T/C [4]?
**A.** 91 % of control

**Q.** What does the source list for CC(=O)C1=C(N)C(C#N)=C(C)C(C)(O)C1 (stereo not given)?
**A.** T/C (dose: 50.0 mg/kg/injection, schedule: Q01DX009 (ip), vehicle: saline + alcohol): 108 % of control; T/C (dose: 100.0 mg/kg/injection, schedule: Q01DX009 (ip), vehicle: saline + alcohol): 90 % of control; T/C (dose: 200.0 mg/kg/injection, schedule: Q01DX009 (ip), vehicle: saline + alcohol): 89 % of control

**Q.** For CN(C)C(=S)S, which T/C (dose: 50.0 mg/kg/injection, schedule: Q01DX009 (ip), vehicle: Klucel (hydroxypropylcellulose) (HPC)) is on record?
**A.** 102 % of control

**Q.** What about the T/C (dose: 100.0 mg/kg/injection, schedule: Q01DX009 (ip), vehicle: Klucel (hydroxypropylcellulose) (HPC)) of the same molecule?
**A.** 100 % of control

**Q.** And the T/C (dose: 200.0 mg/kg/injection, schedule: Q01DX009 (ip), vehicle: Klucel (hydroxypropylcellulose) (HPC))?
**A.** 105 % of control

**Q.** What about the T/C (dose: 400.0 mg/kg/injection, schedule: Q01DX009 (ip), vehicle: Klucel (hydroxypropylcellulose) (HPC)) of the same molecule?
**A.** 114 % of control

**Q.** For CC1C(=O)OC(C(O)C(C)(O)C2C(O)CC3C4CC5OC56C(O)C=CC(=O)C6(C)C4CCC32C)C1C (stereo not given), which T/C (dose: 1.25 mg/kg/injection, schedule: Q01DX009 (ip), vehicle: Klucel (hydroxypropylcellulose) (HPC)) is on record?
**A.** 108 % of control

**Q.** And the T/C (dose: 2.5 mg/kg/injection, schedule: Q01DX009 (ip), vehicle: Klucel (hydroxypropylcellulose) (HPC))?
**A.** 103 % of control

**Q.** What about the T/C (dose: 5.0 mg/kg/injection, schedule: Q01DX009 (ip), vehicle: Klucel (hydroxypropylcellulose) (HPC)) of the same molecule?
**A.** 105 % of control

**Q.** And the T/C (dose: 10.0 mg/kg/injection, schedule: Q01DX009 (ip), vehicle: Klucel (hydroxypropylcellulose) (HPC))?
**A.** 108 % of control

**Q.** Which T/C (dose: 50.0 mg/kg/injection, schedule: Q01DX005 (ip), vehicle: Klucel (hydroxypropylcellulose) (HPC)) does the source give for O=C1NC(O)c2cc(Br)ccc2O1 (stereo not given) here?
**A.** 100 % of control

**Q.** And the T/C (dose: 100.0 mg/kg/injection, schedule: Q01DX005 (ip), vehicle: Klucel (hydroxypropylcellulose) (HPC))?
**A.** 104 % of control

**Q.** And the T/C (dose: 200.0 mg/kg/injection, schedule: Q01DX005 (ip), vehicle: Klucel (hydroxypropylcellulose) (HPC))?
**A.** 106 % of control

**Q.** For Brc1ccc2c(NCCCCCCCCNc3c4ccccc4nc4cc(Br)ccc34)c3ccccc3nc2c1, which T/C (dose: 0.32 mg/kg/injection, schedule: Q01DX009 (ip), vehicle: other) is on record?
**A.** 100 % of control

**Q.** And the T/C (dose: 0.63 mg/kg/injection, schedule: Q01DX009 (ip), vehicle: other)?
**A.** 99 % of control

**Q.** What about the T/C (dose: 1.25 mg/kg/injection, schedule: Q01DX009 (ip), vehicle: other) of the same molecule?
**A.** 107 % of control

**Q.** And the T/C (dose: 2.5 mg/kg/injection, schedule: Q01DX009 (ip), vehicle: other)?
**A.** 109 % of control

**Q.** What about the T/C (dose: 5.0 mg/kg/injection, schedule: Q01DX009 (ip), vehicle: other) of the same molecule?
**A.** 96 % of control

**Q.** What about the T/C (dose: 10.0 mg/kg/injection, schedule: Q01DX009 (ip), vehicle: other) of the same molecule?
**A.** 101 % of control

**Q.** What does the source list for O=C(O)CNC(=O)CNC(=O)CCNC(=O)OCc1ccccc1 ({Cbz-βAla}-Gly-Gly-OH)?
**A.** T/C [2]: 101 % of control; T/C [3]: 97 % of control; T/C [4]: 108 % of control

**Q.** Which T/C (dose: 15.0 mg/kg/injection, schedule: Q01DX005 (ip), vehicle: saline with Tween-80) does the source give for COc1ccc(C(Cl)(c2ccccc2)c2ccc(C(C)=O)cc2)cc1 (stereo not given) here?
**A.** 107 % of control

**Q.** What about the T/C (dose: 30.0 mg/kg/injection, schedule: Q01DX005 (ip), vehicle: saline with Tween-80) of the same molecule?
**A.** 101 % of control

**Q.** What about the T/C [5] of the same molecule?
**A.** 88 % of control and 97 % of control

**Q.** For Nc1ccc(S(=O)(=O)NCCSSCCNS(=O)(=O)c2ccc(N)cc2)cc1, which T/C [5] is on record?
**A.** 97 % of control

**Q.** What about the T/C (dose: 120.0 mg/kg/injection, schedule: Q01DX005 (ip), vehicle: saline with Tween-80) of the same molecule?
**A.** 100 % of control

**Q.** And the T/C (dose: 240.0 mg/kg/injection, schedule: Q01DX005 (ip), vehicle: saline with Tween-80)?
**A.** 105 % of control
